According to patent US20250000874A1, “BACTERIAL METABOLITES AND THEIR USE IN REDUCING INFLAMMATION” (LOYOLA UNIVERSITY OF CHICAGO, priority 2023, published 2025):

Legend:
[1] = system: Bone Marrow Derived Macrophage (BMDM); assay: NC on TNFα production by BMDMs in response to TLR agonists (Example 7); assay type: cell-based, mouse
Procedure: FIG. 32. NC Reduces TNFα Response to Toll 3 Agonist. Macrophages were cultured at a uniform density and allowed to adhere (in the case of BMDMs) or differentiate with PMA (in the case of THP-1s). macrophages were then incubated overnight in NC at a concentration of 50 uM at 37° C. The following day, the BMDMs were stimulated with P(I:C) at 50 ug/mL, 100 ug/mL, or 200 ug/mL for four hours and the THP-1s were stimulated at 200 […]. Supernatants were collected and TNFα concentrations were determined via ELISA.
FIG. 33. TNFα production from Bone Marrow Derived Macrophage (BMDM) stimulation. BMDMs were cultured in DMEM supplemented with Macrophage Colony Stimulating Factor (M-CSF) at 10 ng/ml. The macrophages were then incubated overnight in NC at a concentration of 50 uM at 37° C. The following day they were stimulated with LPS at 1 ng/ml, 10 ng/ml for four hours. Supernatants were collected and TNFα concentrations were determined via ELISA.
Bone marrow derived macrophages were collected from adult mice (6-8 weeks old). Femurs were obtained and cut with scissors. The connecting muscles were removed and the bones were flushed with PBS. PBS was collected and cells were counted and adjusted to the desired concentrations. […] After 7 days the cells were ready for use. […]
Once ready, macrophages were then incubated with NC at a concentration of 50 uM overnight. […] Samples were treated for 4 hours and then Supernatant was then collected and the concentration of TNFα was then determined via the commercially available ELISA MAX Deluxe kit (Biolegend), with measurements reported in pg/mL.
To investigate the effects NC, macrophages were stimulated in vitro with various TLR agonists, and the production of cytokines was measured via ELISA. […] After 4 hours, supernatant was collected and the concentration of TNFα was determined via ELISA.
Further investigation of NC's impact on TLR signaling involved treating BMDMs with the TLR 4 agonist LPS. […] After 4 hours supernatant was collected and concentration of TNFα was measured via ELISA. […]

[2] = system: phosphorylated NFκB (ser536); assay: NC on phospho-NFκB (ser536) levels in stimulated Raw 264.7 macrophages; assay type: cell-based, mouse
Procedure: FIG. 31. Compound NC on phospho-NFκB (ser536) levels in stimulated macrophages. Raw 264.7 macrophages were incubated with 50 μM of NC for 18 hours prior to stimulation with LPS or Poly I:C. Whole cell lysates were collected after 2 hours and the level of phosphorylated NFκB (Phosphoserine 536) was quantified for endpoint absorbance at […] and normalized to absorbance of untreated, unstimulated cells. Mean and p values were computed using R base and dplyr packages using normalized values.
TRIF can participate in TNFα signaling through two distinct mechanisms. Firstly, TRIF can signal NFκB through TRAF6 to increase TNFα transcription. Secondly, TRIF activation can enhance the translation of TNFα mRNA through prolonged MK-2 activation. To determine whether NC reduces TNFα release by blocking TNFα transcription or translation, we collected cell lysates and quantified the levels of phosphorylated NFκB (ser536). Lysates of Raw 264.7 cells treated with NC prior to stimulation with LPS or Poly I:C contained more phosphorylated NFκB (ser536) than untreated cells (FIG. 31). There was no difference in phosphorylated NFκB (ser536) in unstimulated cells treated with NC.

[3] = system: human corneal epithelial cells (HCECs); assay: JE on TLR5 agonist (flagellin)-induced IL-6 in HCECs; assay type: cell-based; settings: JE 50 μM overnight, flagellin 6 or 24 hours, ELISA
Procedure: FIG. 11. Probiotic bacteria metabolite JE inhibits TLR5 agonist-induced IL-6 in HCECs. HCECs were pretreated with 50 µM JE overnight and then stimulated with 0.1 μg/ml flagellin for the indicated time. The effect of TLR5 agonist (flagellin) on IL-6 secretion were measured in cell culture supernatants by ELISA. *, P<0.05.
To test if JE could be used as a therapeutic agent, we tested its effects on a dry eye disease model. Dry eye disease is characterized by inflammation in ocular surface. First, we tested if JE can inhibit production of pro-inflammatory cytokine IL-6 by corneal epithelial cells stimulated by TLR5 agonist flagellin. Thus, SV 40 immortalized human corneal epithelial cells (HCECs) were with JE at 50 μM overnight and they are subsequently exposed to TLR5 agonists (flagellin isolated from Pseudomonas aeruginosa) for 6 or 24 hours. The cell culture supernatants were collected and used for ELISA to determine the concentrations of IL-6. […] Probiotic bacteria-derived metabolite (JE) suppressed the TLR5 agonist-induced IL-6 production (FIG. 11).

SMILES | production and secretion of TNFα ([1]; NC 50 μM overnight, Poly (I:C) 50, 100, 200 μg/ml, 4 hours) | production of TNFα ([1]; NC alone, 50 μM overnight) | cytokine (TNFα) production in response to TLR 4 agonist LPS ([1]; NC overnight, LPS 1 ng/ml and 10 ng/ml, 4 hours) | phosphorylated NFκB (ser536) level ([2]; 50 μM NC 18 hours, LPS, lysates after 2 hours) | phosphorylated NFκB (ser536) level ([2]; 50 μM NC 18 hours, Poly I:C, lysates after 2 hours) | phosphorylated NFκB (ser536) level ([2]; NC, unstimulated cells) | TLR5 agonist-induced IL-6 production [3]
CCCCCCCCCCCCCCCC(=O)N[C@@H](C(=O)O)[C@H](C)O [NC, N-Palmitoyl-D-Threonine] | reduced | not found to increase | able to reduce | more and significantly decreases | more and significantly decreases | no difference | –
CC(=O)O[C@@H]1CC[C@H]2[C@H]3CC[C@H]4CC(F)(F)CC[C@]4(C)[C@H]3CC[C@]12C [JE, 3,3-Difluoro-5-alpha-androstan-17-beta-yl acetate] | – | – | – | – | – | – | suppressed
